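48-hour exposure; five concentrations; linearly interpolated endpoints. At the GI50, growth is halved. At the TGI there is no net growth.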
Legend:
Experiment in all cases: DTP human tumour cell line panel, 48 h
A498 renal = test system: A498 renal
M14 melanoma = test system: M14 melanoma
OVCAR-4 ovarian = test system: OVCAR-4 ovarian
OVCAR-3 ovarian = test system: OVCAR-3 ovarian
ACHN renal = test system: ACHN renal
PC-3 prostate = test system: PC-3 prostate
UACC-62 melanoma = test system: UACC-62 melanoma
T-47D breast = test system: T-47D breast
OVCAR-5 ovarian = test system: OVCAR-5 ovarian
SK-MEL-28 melanoma = test system: SK-MEL-28 melanoma
K-562 leukemia = test system: K-562 leukemia
MOLT-4 leukemia = test system: MOLT-4 leukemia
A549 NSCLC = test system: A549 NSCLC
SW-620 colon = test system: SW-620 colon
SN12C renal = test system: SN12C renal
HS 578T breast = test system: HS 578T breast
IGROV1 ovarian = test system: IGROV1 ovarian
MCF7 breast = test system: MCF7 breast
HOP-92 NSCLC = test system: HOP-92 NSCLC
NCI-H460 lung = test system: NCI-H460 lung
SK-MEL-5 melanoma = test system: SK-MEL-5 melanoma
TK-10 renal = test system: TK-10 renal
SF-268 CNS = test system: SF-268 CNS
SF-295 CNS = test system: SF-295 CNS
CCRF-CEM leukemia = test system: CCRF-CEM leukemia
RPMI-8226 leukemia = test system: RPMI-8226 leukemia
SNB-19 CNS = test system: SNB-19 CNS
HL-60(TB) leukemia = test system: HL-60(TB) leukemia
SK-OV-3 ovarian = test system: SK-OV-3 ovarian
KM12 colon = test system: KM12 colon
NCI-H226 lung = test system: NCI-H226 lung
UACC-257 melanoma = test system: UACC-257 melanoma
HCT-15 colon = test system: HCT-15 colon
MALME-3M melanoma = test system: MALME-3M melanoma
CAKI-1 renal = test system: CAKI-1 renal
BT-549 breast = test system: BT-549 breast
RXF 393 renal = test system: RXF 393 renal
HT29 colon = test system: HT29 colon
UO-31 renal = test system: UO-31 renal
LOX IMVI melanoma = test system: LOX IMVI melanoma
EKVX NSCLC = test system: EKVX NSCLC
MDA-MB-435 = test system: MDA-MB-435
786-0 renal = test system: 786-0 renal
NCI-H23 lung = test system: NCI-H23 lung
SNB-75 CNS = test system: SNB-75 CNS
HCC-2998 colon = test system: HCC-2998 colon
SK-MEL-2 melanoma = test system: SK-MEL-2 melanoma
OVCAR-8 ovarian = test system: OVCAR-8 ovarian
SF-539 CNS = test system: SF-539 CNS
DU-145 prostate = test system: DU-145 prostate
MDA-MB-231 breast = test system: MDA-MB-231 breast
U251 CNS = test system: U251 CNS
NCI/ADR-RES ovarian = test system: NCI/ADR-RES ovarian

Structure (SMILES): COc1ccc(C(O)c2cc3c(N)c(C(=O)Nc4cccc(Cl)c4C)sc3nc2C)cc1 (stereo unspecified)
- GI50 (A498 renal): 761 nM
- TGI (A498 renal): 1630 nM
- GI50 (M14 melanoma): 872 nM
- TGI (M14 melanoma): 1780 nM
- GI50 (OVCAR-4 ovarian): 782 nM
- TGI (OVCAR-4 ovarian): 2000 nM
- GI50 (OVCAR-3 ovarian): 814 nM
- TGI (OVCAR-3 ovarian): 1790 nM
- GI50 (ACHN renal): 877 nM
- TGI (ACHN renal): 1630 nM
- GI50 (PC-3 prostate): 768 nM
- TGI (PC-3 prostate): 1630 nM
- GI50 (UACC-62 melanoma): 896 nM
- TGI (UACC-62 melanoma): 1670 nM
- GI50 (T-47D breast): 953 nM
- TGI (T-47D breast): 2200 nM
- GI50 (OVCAR-5 ovarian): 932 nM
- TGI (OVCAR-5 ovarian): 1920 nM
- GI50 (SK-MEL-28 melanoma): 854 nM
- TGI (SK-MEL-28 melanoma): 1580 nM
- GI50 (K-562 leukemia): 198 nM
- TGI (K-562 leukemia): 1450 nM
- GI50 (MOLT-4 leukemia): 846 nM
- TGI (MOLT-4 leukemia): 2130 nM
- GI50 (A549 NSCLC): 933 nM
- TGI (A549 NSCLC): 2020 nM
- GI50 (SW-620 colon): 831 nM
- TGI (SW-620 colon): 1650 nM
- GI50 (SN12C renal): 815 nM
- TGI (SN12C renal): 1610 nM
- GI50 (HS 578T breast): 774 nM
- TGI (HS 578T breast): 1790 nM
- GI50 (IGROV1 ovarian): 687 nM
- TGI (IGROV1 ovarian): 1440 nM
- GI50 (MCF7 breast): 569 nM
- TGI (MCF7 breast): 1240 nM
- GI50 (HOP-92 NSCLC): 618 nM
- TGI (HOP-92 NSCLC): 1680 nM
- GI50 (NCI-H460 lung): 834 nM
- TGI (NCI-H460 lung): 1730 nM
- GI50 (SK-MEL-5 melanoma): 874 nM
- TGI (SK-MEL-5 melanoma): 1580 nM
- GI50 (TK-10 renal): 871 nM
- TGI (TK-10 renal): 1800 nM
- GI50 (SF-268 CNS): 808 nM
- TGI (SF-268 CNS): 1680 nM
- GI50 (SF-295 CNS): 881 nM
- TGI (SF-295 CNS): 1660 nM
- GI50 (CCRF-CEM leukemia): 733 nM
- TGI (CCRF-CEM leukemia): 1930 nM
- GI50 (RPMI-8226 leukemia): 681 nM
- TGI (RPMI-8226 leukemia): 1850 nM
- GI50 (SNB-19 CNS): 943 nM
- TGI (SNB-19 CNS): 1920 nM
- GI50 (HL-60(TB) leukemia): 877 nM
- TGI (HL-60(TB) leukemia): 2140 nM
- GI50 (SK-OV-3 ovarian): 988 nM
- TGI (SK-OV-3 ovarian): 2090 nM
- GI50 (KM12 colon): 865 nM
- TGI (KM12 colon): 1680 nM
- GI50 (NCI-H226 lung): 1040 nM
- TGI (NCI-H226 lung): 3150 nM
- GI50 (UACC-257 melanoma): 1000 nM
- TGI (UACC-257 melanoma): 2020 nM
- GI50 (HCT-15 colon): 623 nM
- TGI (HCT-15 colon): 1330 nM
- GI50 (MALME-3M melanoma): 809 nM
- TGI (MALME-3M melanoma): 1510 nM
- GI50 (CAKI-1 renal): 689 nM
- TGI (CAKI-1 renal): 1380 nM
- GI50 (BT-549 breast): 888 nM
- TGI (BT-549 breast): 1770 nM
- GI50 (RXF 393 renal): 709 nM
- TGI (RXF 393 renal): 1420 nM
- GI50 (HT29 colon): 768 nM
- TGI (HT29 colon): 1720 nM
- GI50 (UO-31 renal): 627 nM
- TGI (UO-31 renal): 1270 nM
- GI50 (LOX IMVI melanoma): 838 nM
- TGI (LOX IMVI melanoma): 1550 nM
- GI50 (EKVX NSCLC): 886 nM
- TGI (EKVX NSCLC): 2160 nM
- GI50 (MDA-MB-435): 825 nM
- TGI (MDA-MB-435): 1560 nM
- GI50 (786-0 renal): 786 nM
- TGI (786-0 renal): 1530 nM
- GI50 (NCI-H23 lung): 926 nM
- TGI (NCI-H23 lung): 1800 nM
- GI50 (SNB-75 CNS): 637 nM
- TGI (SNB-75 CNS): 1340 nM
- GI50 (HCC-2998 colon): 444 nM
- TGI (HCC-2998 colon): 1160 nM
- GI50 (SK-MEL-2 melanoma): 909 nM
- TGI (SK-MEL-2 melanoma): 1840 nM
- GI50 (OVCAR-8 ovarian): 948 nM
- TGI (OVCAR-8 ovarian): 2170 nM
- GI50 (SF-539 CNS): 818 nM
- TGI (SF-539 CNS): 1540 nM
- GI50 (DU-145 prostate): 929 nM
- TGI (DU-145 prostate): 1850 nM
- GI50 (MDA-MB-231 breast): 781 nM
- TGI (MDA-MB-231 breast): 1570 nM
- GI50 (U251 CNS): 797 nM
- TGI (U251 CNS): 1570 nM
- GI50 (NCI/ADR-RES ovarian): 915 nM
- TGI (NCI/ADR-RES ovarian): 1840 nM
